# From patent US20110152249A1, “EVALUATING CENTRAL NERVOUS SYSTEM” (THE GENERAL HOSPITAL CORPORATION, priority 2004, published 2011)
# Read-outs that look alike come from different tables or passages of the source.
# Key:
# patient = assay: Medication history of a patient with facial burning and numbness following trigeminal rhizotomy; format: in vivo, human; conditions: single patient; facial burning and numbness after rhizotomy for trigeminal neuralgia
# Protocol: In a similar manner as that described above for a healthy volunteer, we examined fMRI activation in a patient who had facial burning and numbness following trigeminal rhizotomy one year previously for trigeminal neuralgia. Medications, including gabapentin and tegretol, had been unhelpful. Careful questioning and psychophysical evaluation was performed. […] They also had decreased warm and cold sensation on the affected side vs. the intact side. They underwent functional neuroimaging for thermal stimuli applied to the V2 and V3 distributions on the right and left. FIGS. 3A-3E show the results of cortical activation from this patient. There was a decrease in activation to a 45° C. stimulus applied to the affected area and an apparent increase in signal for the same stimulus applied to the ipsilateral V3 distribution.
# opioid naïve individuals = assay: fMRI response to morphine in opioid naïve individuals; format: in vivo, human
# Description: Some of these have an oppositely valenced signal to that observed for aversive painful stimuli. […] This observation is in counter distinction to that observed for cortical activation by painful stimuli (see above).
# healthy human volunteers = tested on: healthy human volunteers
# Description: We also investigated the effects of the general anesthetic agent propofol on cerebral structures involved in the processing of vibrotactile information. Using positron emission tomography (PET) and the H(2)(15)O bolus technique, we measured regional distribution of cerebral blood flow (CBF) in eight healthy human volunteers. They were scanned under five different levels of propofol anesthesia. Using a computer-controlled infusion, the following plasma levels of propofol were targeted: Level W (Waking, 0 microg/ml), Level 1 (0.5 microg/ml), Level 2 (1.5 microg/ml), Level 3 (3.5 microg/ml), and Level R (Recovery). At each level of anesthesia, two 3-min scans were acquired with vibrotactile stimulation of the right forearm either on or off. The level of consciousness was evaluated before each scan by the response of the subject to a verbal command.
structure (smiles),measurement,setting,value
NCC1(CC(=O)O)CCCCC1 [gabapentin],clinical benefit of medication,patient,unhelpful
CN1CC[C@]23c4c5ccc(O)c4O[C@H]2[C@@H](O)C=C[C@H]3[C@H]1C5 [morphine],fMRI activation in subcortical structures,opioid naïve individuals,activation in deep subcortical structures including those involved in reward
same,fMRI signal in the SI cortex,opioid naïve individuals; low-dose morphine,decrease in signal in SI
CC(C)c1cccc(C(C)C)c1O [propofol],level of consciousness,"healthy human volunteers; Level 1, target plasma 0.5 microg/ml",slightly drowsy
same,vibration-induced increases in rCBF in the primary and secondary somatosensory cortex,"healthy human volunteers; Level 1 through 3 (0.5-3.5 microg/ml target plasma), vibrotactile stimulation of right forearm",suppressed vibration-induced increases in rCBF
same,level of consciousness,"healthy human volunteers; Level 2, target plasma 1.5 microg/ml",slurred speech and slow response
same,level of consciousness,"healthy human volunteers; Level 3, target plasma 3.5 microg/ml",not responding at all
same,thalamic rCBF response to vibrotactile stimulation,"healthy human volunteers; Level 3 = 3.5 microg/ml target plasma, volunteers lost consciousness",abolished only at Level 3
same,"rCBF in the thalamus and in visual, parietal, and prefrontal cortical regions","healthy human volunteers; during anesthesia, target plasma levels 0.5, 1.5, 3.5 microg/ml",reduced in a dose-dependent manner rCBF
NC(=O)N1c2ccccc2C=Cc2ccccc21 [tegretol],clinical benefit of medication,patient,unhelpful
